Test systems include A498; HOP-18; IGROV-1; K562; KM-20L2; KM12; LXFL 529; Malme-3M; NCI-H522; OVCAR-5; SF-268; SK-MEL-2; SK-MEL-5; SK-OV-3; SNB-19; HCC 2998; SNB-78; Hs-578T; MDA-MB-435; PC-3.
Common to all, as to assay: growth of human tumour cells (NCI), 48 h

The source of these data is ChEMBL document CHEMBL1201862, “PubChem BioAssay data set” (2004).

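Interpolation was linear, between the two tested concentrations surrounding the appropriate level; five concentrations were tested over 48 hours in 96-well plates. GI50: concentration for 50% inhibition of growth.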 The source made the active and inactive calls. No stated cut-off is given here; in the data, active = GI50 up to about 1.1 µM and inactive = higher.

For the molecule `O=C1c2ccccc2C(=O)N1CCCOCc1cnc(O)nc1O`, the GI50 with A498, in the experiment on HOP-18, in the experiment on IGROV-1, in the experiment with K562, in the experiment with KM-20L2 and in the experiment on KM12 was > 100 µM (inactive) in each case. The GI50 in the experiment with LXFL 529, in the experiment on Malme-3M, in the experiment on NCI-H522, in the experiment with OVCAR-5, with SF-268 and in the experiment with SK-MEL-2 was > 100 µM (inactive) throughout. Further, the GI50 in the experiment on SK-MEL-5, in the experiment with SK-OV-3 and in the experiment with SNB-19 was > 100 µM (inactive) in each case.
For the molecule `CCOC(=O)c1ccc(/N=N\c2ccc(N(CCC#N)CCC#N)cc2C)cc1`, the GI50 in the experiment on A498 is > 100 µM (inactive); in the experiment with HCC 2998, > 100 µM (inactive); in the experiment with HOP-18 it was 51.6 µM (inactive); with IGROV-1, > 100 µM (inactive); in the experiment on K562 it was > 100 µM (inactive); with KM12 it was > 100 µM (inactive). The GI50 was 35.9 µM (inactive) in the experiment with LXFL 529; > 100 µM (inactive) in the experiment with Malme-3M; 30.4 µM (inactive) with NCI-H522; > 100 µM (inactive) in the experiment with OVCAR-5; > 100 µM (inactive) with SK-MEL-2; > 100 µM (inactive) in the experiment with SK-MEL-5. For the same molecule, the GI50 in the experiment with SK-OV-3, in the experiment with SNB-19 and in the experiment with SNB-78 was > 100 µM (inactive) each time.
In the case of `CC1=NN(c2ccccc2)C(=O)C1/N=N/c1ccc(Br)c(C)c1` (stereo not given), the GI50 is > 100 µM (inactive) in the experiment with A498; > 100 µM (inactive) in the experiment on HCC 2998; 0.0562 µM (active) in the experiment with HOP-18; > 100 µM (inactive) in the experiment with IGROV-1; > 100 µM (inactive) in the experiment with K562; > 100 µM (inactive) in the experiment with KM-20L2. For the same molecule, the GI50 with KM12 was > 100 µM (inactive); with LXFL 529, > 100 µM (inactive); in the experiment on Malme-3M, > 100 µM (inactive); with OVCAR-5, > 100 µM (inactive); with SF-268, > 10 µM (inactive); with SK-MEL-2, > 100 µM (inactive). The GI50 in the experiment with SK-MEL-5, in the experiment on SK-OV-3, in the experiment on SNB-19 and in the experiment on SNB-78 was > 100 µM (inactive) throughout.
Consider `Cc1cc([N+](=O)[O-])c(C)c2c1[nH]c1ccc(Cl)cc12`, for which the GI50 with HCC 2998 is > 100 µM (inactive); with HOP-18, > 100 µM (inactive); with K562, 26.4 µM (inactive); with KM12 it was > 100 µM (inactive); with Malme-3M, > 100 µM (inactive); in the experiment on NCI-H522 it was 18.8 µM (inactive). Besides, the GI50 in the experiment with OVCAR-5, with SF-268, with SK-MEL-2, in the experiment with SK-MEL-5, with SNB-19 and in the experiment with SNB-78 was > 100 µM (inactive) throughout.
For the molecule `CN(Cc1ccccc1)/C(=N\C#N)N(Cc1ccccc1)Cc1ccccc1`, the GI50 was 44.8 µM (inactive) in the experiment with A498; 34.8 µM (inactive) in the experiment on HCC 2998; 34.8 µM (inactive) in the experiment on Hs-578T; 24.3 µM (inactive) with IGROV-1; 25.2 µM (inactive) with K562; 19.6 µM (inactive) in the experiment with KM-20L2. Besides, the GI50 in the experiment on KM12 was 18.7 µM (inactive); with LXFL 529, 21.9 µM (inactive); with MDA-MB-435, 15.1 µM (inactive); in the experiment on Malme-3M, 25.2 µM (inactive); in the experiment with NCI-H522, 18.1 µM (inactive); in the experiment on OVCAR-5, 21.1 µM (inactive). In addition, the GI50 with PC-3 was 14.8 µM (inactive); in the experiment with SF-268, 34.4 µM (inactive); in the experiment on SK-MEL-2 it was 20.3 µM (inactive); in the experiment on SK-MEL-5 it was 18.4 µM (inactive); with SK-OV-3 it was 29 µM (inactive); in the experiment with SNB-19, 40.2 µM (inactive). Besides, the GI50 with SNB-78 is 26.3 µM (inactive).
Take `CC(C)(C)C1CCC2c3c([nH]c4ncccc34)C3C(=O)N(c4ccccc4)C(=O)C3C2C1` (stereo not given): the GI50 with HCC 2998, in the experiment with HOP-18, with IGROV-1, in the experiment with K562, in the experiment on KM-20L2 and in the experiment with KM12 was > 100 µM (inactive) in each case. The GI50 in the experiment with LXFL 529 is > 100 µM (inactive); in the experiment with Malme-3M, > 100 µM (inactive); in the experiment with NCI-H522 it was 89.3 µM (inactive); in the experiment on OVCAR-5, > 100 µM (inactive); in the experiment with SF-268 it was > 100 µM (inactive); in the experiment with SK-MEL-2, > 100 µM (inactive). The GI50 is > 100 µM (inactive) in the experiment with SK-MEL-5, > 100 µM (inactive) in the experiment with SK-OV-3, > 100 µM (inactive) in the experiment on SNB-19 and 40.4 µM (inactive) in the experiment with SNB-78.
For `COC(=O)c1cc(-c2ccc(OC)c(OC)c2)oc1-c1ccc(OC)c(OC)c1`, the GI50 in the experiment with A498 is 18.7 µM (inactive); in the experiment with HCC 2998, 81.8 µM (inactive); with HOP-18 it was 29.2 µM (inactive); in the experiment with IGROV-1, 45.5 µM (inactive); with K562, 80.9 µM (inactive); in the experiment with KM-20L2 it was 53.3 µM (inactive). Further, the GI50 is 41.6 µM (inactive) with KM12; 27.7 µM (inactive) in the experiment on LXFL 529; 43.7 µM (inactive) in the experiment on Malme-3M; 36.1 µM (inactive) with OVCAR-5; 49.7 µM (inactive) in the experiment on SF-268; 44.9 µM (inactive) with SK-MEL-2. The GI50 in the experiment with SK-MEL-5 is > 10 µM (inactive); in the experiment on SK-OV-3 it was 38.9 µM (inactive); with SNB-78 it was 31.7 µM (inactive).
Consider `O=C(NCCCN1CCN(CCCNC(=O)Nc2cc(Cl)ccc2Cl)CC1)Nc1cc(Cl)ccc1Cl`, for which the GI50 in the experiment on HOP-18 was > 100 µM (inactive); in the experiment on IGROV-1, > 100 µM (inactive); with K562, 35.5 µM (inactive); in the experiment on KM-20L2 it was 28.4 µM (inactive); in the experiment with KM12, > 100 µM (inactive); in the experiment on LXFL 529, 51.2 µM (inactive). In addition, the GI50 in the experiment with Malme-3M was 24.3 µM (inactive); in the experiment on NCI-H522, 38.6 µM (inactive); in the experiment with OVCAR-5, > 100 µM (inactive); in the experiment on SF-268 it was 87.3 µM (inactive); with SK-MEL-2, > 100 µM (inactive); in the experiment with SK-MEL-5, 39.7 µM (inactive). Further, the GI50 was 97.9 µM (inactive) in the experiment with SK-OV-3, 46.3 µM (inactive) with SNB-19 and 90.6 µM (inactive) in the experiment with SNB-78.
Take `O=c1c(Br)cc2nc3ccccc3sc-2c1Br`: the GI50 with A498 is > 100 µM (inactive); with HCC 2998, > 100 µM (inactive); with IGROV-1, > 100 µM (inactive); in the experiment on K562, 18.7 µM (inactive); in the experiment on KM-20L2, > 100 µM (inactive); in the experiment on KM12 it was > 100 µM (inactive). For the same molecule, the GI50 in the experiment on LXFL 529 is 28.1 µM (inactive); with Malme-3M, > 100 µM (inactive); in the experiment on NCI-H522, 15.8 µM (inactive); with OVCAR-5, > 100 µM (inactive); in the experiment with SF-268, 72.1 µM (inactive); in the experiment with SK-MEL-2, > 100 µM (inactive). Further, the GI50 in the experiment with SK-MEL-5 was 29.5 µM (inactive); in the experiment on SK-OV-3, > 100 µM (inactive); with SNB-19, > 100 µM (inactive); in the experiment on SNB-78, > 100 µM (inactive).
In the case of `Cc1cccc(NC2=NC(=O)C(CC(=O)Nc3ccc(Cl)cc3C)S2)c1` (stereo not given), the GI50 with A498 is 53.8 µM (inactive); with HCC 2998, > 100 µM (inactive); in the experiment with HOP-18, > 100 µM (inactive); in the experiment on IGROV-1, > 100 µM (inactive); in the experiment on K562, > 100 µM (inactive); with KM-20L2, > 100 µM (inactive). The GI50 with KM12, in the experiment on LXFL 529, in the experiment on Malme-3M, in the experiment on NCI-H522, in the experiment on OVCAR-5 and in the experiment on SF-268 was > 100 µM (inactive) throughout. Further, the GI50 in the experiment with SK-MEL-2, in the experiment on SK-MEL-5, in the experiment with SK-OV-3 and with SNB-19 was > 100 µM (inactive) each time.
As for `CCC(O)CCCCCCCCCCCCCCC(=O)O` (stereo not given), the GI50 in the experiment on A498 is > 100 µM (inactive); with HOP-18, > 100 µM (inactive); with IGROV-1 it was > 100 µM (inactive); in the experiment with K562, > 100 µM (inactive); in the experiment on KM12, 61.8 µM (inactive); in the experiment with LXFL 529 it was > 100 µM (inactive). The GI50 with Malme-3M is > 100 µM (inactive); in the experiment on NCI-H522 it was > 100 µM (inactive); with OVCAR-5, > 100 µM (inactive); in the experiment on SF-268 it was > 100 µM (inactive); in the experiment with SK-MEL-2, > 100 µM (inactive); in the experiment with SK-MEL-5, 18.8 µM (inactive). The GI50 in the experiment with SK-OV-3, in the experiment on SNB-19 and in the experiment with SNB-78 was > 100 µM (inactive) in each case.
For `CN(C)c1ccc(C(C#N)NNC(=O)Cc2ccccc2)cc1` (stereo not given), the GI50 in the experiment on HOP-18, with IGROV-1, in the experiment on K562, in the experiment on KM-20L2, in the experiment with KM12 and in the experiment on LXFL 529 was > 100 µM (inactive) throughout. The GI50 in the experiment with Malme-3M, with NCI-H522, in the experiment with OVCAR-5, with SF-268, in the experiment on SK-MEL-2 and with SK-MEL-5 was > 100 µM (inactive) in each case. The GI50 with SK-OV-3 and with SNB-78 was > 100 µM (inactive) in each case.
For `COC(=O)C1=CC(=O)C(C(=O)Nc2ccc(OC)cc2)C(c2ccccc2)O1` (stereo not given), the GI50 is 29.2 µM (inactive) in the experiment on A498; > 53.8 µM (inactive) with HCC 2998; 20.5 µM (inactive) in the experiment with IGROV-1; > 67.6 µM (inactive) with K562; > 78.2 µM (inactive) with KM-20L2; > 100 µM (inactive) in the experiment on KM12. In addition, the GI50 was 25.9 µM (inactive) in the experiment with LXFL 529; > 53 µM (inactive) with Malme-3M; 28 µM (inactive) in the experiment with NCI-H522; > 100 µM (inactive) with OVCAR-5; 17.8 µM (inactive) in the experiment on SF-268; > 81.7 µM (inactive) in the experiment with SK-MEL-2. The GI50 in the experiment with SK-MEL-5 was 25.7 µM (inactive); in the experiment with SK-OV-3, 28.8 µM (inactive); in the experiment on SNB-19, 18.1 µM (inactive); in the experiment on SNB-78, 37.9 µM (inactive).
